Results published in patent US10512627B2, “Anti-tumor compound and the medical use thereof” (Tianjin Medical University Cancer Institute and Hospital, priority 2014, dated 2019).

Key:
[1] = test system: human breast cancer cell MDA-MB-231; assay: Scratch assay, migration of MDA-MB-231 (Example 3); assay type: cell-based; details: 0.5, 1, 2, 4 μmol/L, 0-24 h
Procedure: The inhibiting ability of (S)2-(4′-methyl-3′-nitrobenzoylamino)-3-phenylpropionic acid for the migration of human breast cancer cell MDA-MB-231 was tested by scratch assay.
The MDA-MB-231 cells in logarithmic growth phase were plated in the 6-well plate with the density of 1×10^6/3 mL, and the drug was added after 12 h, with 100 μL per well. The final concentrations of (S)2-(4′-methyl-3′-nitrobenzoylamino)-3-phenylpropionic acid (TCI04) were 0.5, 1, 2, and 4 μmol/L, respectively. The negative control was 100 μL sterilized water with 2% DMSO and the positive control was 1 μmol/L 4-methyl-3-nitrobenzoic acid (TCI01). After 12 h, the culture medium was removed, and the plate was washed 3 times with PBS, and 3 ml culture medium without fetal bovine serum and 100 μL drug (concentration was the same as above) per well were added. 12 h later, 10 μL tips were used to scratch, and after washing 4 times with PBS, 3 ml culture medium without fetal bovine serum per well was added. The distance of cell migration was recorded every 3 h under the inverted microscope, and the photos were taken at 0 h and 24 h.

4T1-luciferase cells = assay: In situ model of breast cancer in nude mouse, lung metastasis by in vivo imaging (Example 7); set-up: species or system nude mice; details: 20 mg/kg and 1 mg/kg tail vein, twice a day, 21 days; P<0.01
Procedure: 4) An in situ breast cancer model is constructed by in situ inoculating nude mice with 4T1 cells which are stably transfected with Luciferase, and the number of metastatic tumors on the lung is detected by in vivo imaging system. Such a model mimics the occurrence and metastasis of breast cancer.
The ability of (S)2-(4′-methyl-3′-nitrobenzoylamino)-3-phenylpropionic acid for inhibiting tumor metastasis in vivo was tested by in situ model of breast cancer in nude mouse.
1) Mice grouping: Nude female mice of SPF grade, 5 weeks old, 18˜22 g, 8 mice for each group;
2) The mother liquid of (S)2-(4′-methyl-3′-nitrobenzoylamino)-3-phenylpropionic acid (TCI04) for the dosage form administrated by intravenous injection was diluted to 2 mg/mL, 0.1 mg/mL by adding sterilized water. The dosage for administration in mice was as follows, high dosage of 20 mg/kg; low dosage of 1 mg/kg. […]
3) 4T1-luciferase cells in logarithmic growth phase were digested with 0.05% typsine for 1 min, after centrifugation at 1000 rpm for 5 min, the supernatant was discarded and the cells were resuspended and counted. […]
5) After the completion of the administration, the mice were detected by in vivo imaging system for the condition of tumor metastasis and immediately sacrificed; the lungs alone were detected by the in vivo imaging system for the light intensity to determine the number of tumor metastasis.

Solubility = assay type: physicochemical; details: dry ethanol, methanol, chloroform, dimethylformamide, dimethylsulfoxide
MDA-MB-231 cells = assay: MTT assay, synergistic effect with Paclitaxel (Example 12); assay type: cell-based, human; details: 20 μM, 24 or 48 h
Procedure: Synergistic effects of (S)2-(4′-methyl-3′-nitrobenzoylamino)-3-phenylpropionic acid and Paclitaxel was tested by MTT assay.
1) The MDA-MB-231 cells in logarithmic growth phase were seeded in the 96-well plate at a density of 4×10^3/0.2 ml. After culturing for 12 h, 10 μl Paclitaxel solution was added, with the final concentration of 0, 0.001, 0.01, 0.1, 1, 10, 50, 100, 200 μM, then 10 μL (S)2-(4′-methyl-3′-nitrobenzoylamino)-3-phenylpropionic acid PBS solution was add to half of the wells for each group with the final concentration of 20 μM, followed by continuous culturing for 24 or 48 h.
2) 5 mg/mL MTT solution was prepared with sterilized PBS, filtered with 0.22 μm film, and diluted with medium to 1 mg/mL. After discarding the medium in the 96-well plate, 100 μL 1 mg/mL MTT working solution was added, followed by continuous culturing for 5 h.
3) MTT working solution was discarded, and 150 μL DMSO was added per well (note: to away from light). The plate was shaken on a horizontal shaker at 170 rpm for 10 min, and then the absorbance at 490 nm was detected by microplate reader.

[2] = test system: human breast cancer cell MDA-MB-231; assay: Transwell invasion assay through Matrigel (Example 5); assay type: cell-based
Procedure: The inhibiting ability of (S)2-(4′-methyl-3′-nitrobenzoylamino)-3-phenylpropionic acid for the invasion of human breast cancer cell MDA-MB-231 was tested by Transwell invasion assay.
1) Gel placement into the Transwell chamber: Matrigel was melted under ice-bath of 4° C. overnight, and diluted with pre-cooled serum free DMEM medium at a ratio of 1:3. Transwell chamber was put in the 24-well plate, and 50 μL gel solution was added per chamber, stayed at 37° C. for 1 h, then 200 μL serum free DMEM medium was added and stayed for 15 min to make the gel reconstitute, and finally the medium was removed for stand-by;
2) MDA-MB-231 cells in logarithmic growth phase were plated in 6-well plate with the density of 1×10^6/3 mL, and after 12 h, the drug was added, with 100 μL per well. The final concentrations of (S)2-(4′-methyl-3′-nitrobenzoylamino)-3-phenylpropionic acid were 1, 2, and 4 μmol/L, respectively. The negative control was 100 μL sterilized water with 2% DMSO and the positive control was 1 μmol/L 4-methyl-3-nitrobenzoic acid. After 12 h, the medium was removed, followed by washing 3 times with PBS, and 3 ml medium without fetal bovine serum and 100 μL drug (concentration is as above) per well were added. […] The cell number was counted and the cells were seeded at the density of 2×10^5/200 μL into the Transwell chamber with the Matrigel. […]

SMILES: Cc1ccc(C(=O)N[C@@H](Cc2ccccc2)C(=O)O)cc1[N+](=O)[O-] [(S)2-(4′-methyl-3′-nitrobenzoylamino)-3-phenylpropionic acid]
- inhibition of migration ability (coalescence speed of cell scratch vs negative control) [1]: significantly inhibited
- light intensity of the whole lung vs negative control (4T1-luciferase cells): significantly weaker than the negative control
- solubility in organic solvents (Solubility): highly soluble
- synergistic effect with Paclitaxel (MDA-MB-231 cells): strong synergistic effect
- invaded cell number compared to the negative control ([2]; 1, 2, 4 μmol/L, 24 h, P<0.01): significantly less than the negative control
- invaded cell number compared to the positive control (1 μmol/L 4-methyl-3-nitrobenzoic acid) ([2]; 2, 4 μmol/L, P>0.05): no significant difference
